Key:
Type in all cases: in vivo
Cyperus iria = test: Herbicidal action in the field (post-emergence treatment); settings: benthiocarb 3000 g/ha a.s.
Text: (§1) The mixtures according to the invention were applied pre- or post-emergence (foliar treatment). The herbicidal compounds of component B were applied in the formulation in which they are present as commercially available product.
(§2) Some of the experiments were greenhouse experiments and some were field trials on mini plots (on a site with sandy loam (pH 6.2 to 7.0) or sandy clay (pH 5.0 to 6.7) as the soil).
(§3) The harmful plants differed with regard to size and developmental state; on average, they were 5 to 20 cm long, depending on the growth habit.
(§4) The herbicidally active compounds of components A) and B) were applied in succession or jointly, in the latter case in some cases as a tank mix and in some cases as a readymix, in the form of emulsions, aqueous solutions or suspensions, the vehicle being water ([…]). In the case of the field trials, application was effected with the aid of a mobile plot sprayer.
(§5) The test period extended over 3 to 8 weeks, and the stands were also observed at later points in time.
(§6) Damage by the herbicidal compositions was evaluated with reference to a scale of 0% to 100% in comparison with untreated control plots. 0 means no damage and 100 means complete destruction of the plants.
(§7) In these examples, the value E at which only an additive effect of the individual active ingredients is to be expected was calculated by the method of S. R. Colby (Calculating synergistic and antagonistic responses of herbicide combinations, Weeds 15, 20 pp (1967).

Veronica ssp. = test: Herbicidal action in the greenhouse (post-emergence treatment)
Text: as §1, §2, §3, §4, §5, §6, §7

Ipomoea ssp. = test: as above
Text: as §1, §2, §3, §4, §5, §6, §7

Digitaria sanguinalis = test: Herbicidal action in the greenhouse (pre-emergence treatment); settings: S-Metolachor 125 g/ha a.s.
Text: as §1, §2, §3, §4, §5, §6, §7

Echinochloa crus-galli [1] = test: as above; settings: S-Metolachlor 62.5 g/ha a.s.
Text: as §1, §2, §3, §4, §5, §6, §7

Setaria viridis = test: as above; settings: S-Metolachlor 62.5 g/ha a.s.
Text: as §1, §2, §3, §4, §5, §6, §7

Zea mays = test: Phytotoxicity to crop plant in the greenhouse (post-emergence treatment)
Text: as §1, §2, §4, §5, §6, §7

Setaria faberi [2] = test: Herbicidal action in the field (post-emergence treatment); settings: Ia.33 75 g/ha a.s.
Text: as §1, §2, §3, §4, §5, §6, §7

Galium aparine = test: as above; settings: Ia.33 1.9 g/ha a.s.
Text: as §1, §2, §3, §4, §5, §6, §7

Sorghum halepense = test: as above; settings: for Damage (%): Sorghum halepense, field, post-emergence, Ia.33 75 g/ha a.s.
Text: as §1, §2, §3, §4, §5, §6, §7

Sorghum bicolor = test: as above
Text: as §1, §2, §3, §4, §5, §6, §7

Ipomoea lacunosa = test: as above; settings: Ia.33 75 g/ha a.s.
Text: as §1, §2, §3, §4, §5, §6, §7

Panicum miliaceum = test: as above; settings: Ia.33 50 g/ha a.s.
Text: as §1, §2, §3, §4, §5, §6, §7

Amaranthus retroflexus [3] = test: Herbicidal action in the greenhouse (post-emergence treatment); settings: Amaranthus retroflexus, post-emergence
Text: as §1, §2, §3, §4, §5, §6, §7

Setaria faberi [4] = test: as above; settings: Ia.33 7.8 g/ha a.s.
Text: as §1, §2, §3, §4, §5, §6, §7

Abutilon theophrasti = test: as above; settings: Ia.33 7.8 g/ha a.s.
Text: as §1, §2, §3, §4, §5, §6, §7

Echinochloa crus-galli [5] = test: as above
Text: as §1, §2, §3, §4, §5, §6, §7

Alopecurus myosuroides = test: as above
Text: as §1, §2, §3, §4, §5, §6, §7

Amaranthus retroflexus [6] = test: Herbicidal action in the field (post-emergence treatment); settings: dicamba 280 g/ha a.s.
Text: as §1, §2, §3, §4, §5, §6, §7

CCN(CC)C(=O)SCc1ccc(Cl)cc1 [benthiocarb]
Damage (Cyperus iria): 50%

CCc1cccc(C)c1N(C(=O)CCl)[C@@H](C)COC [S-Metolachlor, S-metolachlor, reference compound]
Damage (Veronica ssp.; S-Metolachlor 125 g/ha a.s.): 0%
Damage (Ipomoea ssp.; S-Metolachlor 62.5 g/ha a.s.): 0%
Damage (Digitaria sanguinalis): 50%
Damage (Echinochloa crus-galli [1]): 65%
Damage (Setaria viridis): 70%
Phytotoxicity (%) (Zea mays; Table 84, S-Metolachlor 125 g/ha a.s.): 0%

Cc1c(C(=O)c2cnn(C)c2O)ccc(S(C)(=O)=O)c1C1=NOCC1 [Ia.33, 4-[2-methyl-3-(4,5-dihydroisoxazol-3-yl)-4-methylsulfonylbenzoyl]-1-methyl-5-hydroxy-1H-pyrazole]
Damage (Setaria faberi [2]): 65%
Damage (%) (Setaria faberi [2]; Table 82, Setaria faberi, field, post-emergence): 65%
Damage (Galium aparine): 20%
Damage (Sorghum halepense; Ia.33 75 g/ha a.s. (Table 32)): 78%
Damage (Sorghum halepense; Ia.33 75 g/ha a.s. (Table 42)): 78%
Damage (%) (Sorghum halepense; Table 78): 78%
Damage (%) (Sorghum halepense; Table 79): 78%
Damage (Sorghum bicolor; Ia.33 75 g/ha a.s. (Table 73)): 78%
Damage (Ipomoea lacunosa): 69%
Damage (%) (Ipomoea lacunosa; Table 81, Ipomoea lacunosa, field, post-emergence): 69%
Damage (Panicum miliaceum): 87%
pest or weed control at 1.9 g/ha (Amaranthus retroflexus [3]; read-out: Damage, Ia.33 1.9 g/ha a.s.): 30%
pest or weed control at 7.8 g/ha (Amaranthus retroflexus [3]; read-out: Damage, Ia.33 7.8 g/ha a.s.): 70%
Damage (Setaria faberi [4]): 90%
Damage (Abutilon theophrasti): 90%
Damage (Echinochloa crus-galli [5]; Ia.33 1.9 g/ha a.s.): 55%
Damage (Echinochloa crus-galli [5]; Ia.33 15.6 g/ha a.s.): 90%
Damage (Veronica ssp.; Ia.33 15.6 g/ha a.s.): 60%
Damage (Veronica ssp.; Ia.33 62.5 g/ha a.s. (Table 18)): 20%
Damage (Veronica ssp.; Ia.33 62.5 g/ha a.s. (Table 51)): 80%
Damage (Alopecurus myosuroides; Ia.33 15.6 g/ha a.s.): 40%
Damage (Alopecurus myosuroides; Ia.33 62.5 g/ha a.s. (Table 19)): 40%
Damage (Alopecurus myosuroides; Ia.33 62.5 g/ha a.s. (Table 62)): 40%
Damage (Ipomoea ssp.; Ia.33 3.9 g/ha a.s.): 50%
Damage (Ipomoea ssp.; Ia.33 62.5 g/ha a.s.): 80%
Phytotoxicity (%) (Zea mays; Table 84, Ia.33 62.5 g/ha a.s.): 0%

COc1c(Cl)ccc(Cl)c1C(=O)O [dicamba, reference compound]
Damage (Amaranthus retroflexus [6]): 25%
Damage (Sorghum bicolor; dicamba 560 g/ha a.s.): 17%
